The text below walks through data of article PMC7477548, “Prediction of an MMP-1 inhibitor activity cliff using the SAR matrix approach and its experimental validation” (Scientific Reports, 2020).

For one series, the target named is T1, MMP-1 (Homo sapiens, UniProt P03956).
T1 construct: purchased abcam ab139443
T1 sequence (P03956 100-269 limits assumed): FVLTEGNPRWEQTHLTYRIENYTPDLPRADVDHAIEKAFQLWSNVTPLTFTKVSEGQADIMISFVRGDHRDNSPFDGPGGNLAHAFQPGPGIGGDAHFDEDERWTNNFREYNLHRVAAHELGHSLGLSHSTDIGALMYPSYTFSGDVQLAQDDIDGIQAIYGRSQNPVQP
Briefly: MMP-1 inhibitory colorimetric assay (MMP1 Inhibitor Screening Assay Kit ab139443). In kind it is biochemical. The conditions noted are these: for IC50: colorimetric assay, A412nm, mean ± standard deviation of triplicated samples; for inhibitory activity against MMP-1 in words: at a 100 µM concentration. As for the experimental part:
We next examined the inhibitory activity of the synthesized compounds 3–6 against MMP-1 using a colorimetric assay. This assay was performed using the MMP-1 Inhibitor Screening Assay Kit (ab139443) according to the manufacturer’s protocols. The reaction was started by the addition of the diluted MMP-1 substrate. The continuous absorbance of the wells was measured at A412nm using a microplate reader.
MMP-1 inhibitory assay was performed using the assay kit according to the manufacturer’s protocol. A 96-well clear microplate (1/2 volume), 30.6 U/µL of MMP-1 enzyme, MMP-1 substrate (25 mM in DMSO), and colorimetric assay buffer were contained in MMP1 Inhibitor Screening Assay Kit (ab139443, abcam). 2-[(2-Methylpropyl)[(4-methoxyphenyl)sulfonyl]amino]acetohydroximic acid (NNGH) was used as a positive control of an MMP-1 inhibitor. The MMP-1 substrate and DMSO solution of compound were thawed at room temperature. A compound (10 mM in DMSO) was diluted at 1/200 in assay buffer and brought to 37 °C. Also, the MMP-1 substrate was diluted at 1/200 in assay buffer and brought to 37 °C. The MMP-1 enzyme was diluted at 1/25 in assay buffer and warmed up to 37 °C as soon as the assay was started. After the assay buffer was pipetted appropriately into each well, 20 µL of the prepared MMP-1 enzyme solution and the desired concentration of test inhibitor solutions (20 µL; final concentrations: 0.1–100 µM) were added to the wells. The microplate was incubated for 30 min at 37 °C. The 10 µL of the prepared MMP-1 substrate solution was added into each well to allow the reaction start. The absorbance of the wells was measured at A412nm using a microplate reader every 1 min, and data analysis was performed.

Regarding `C[C@H](C(=O)NO)N1CC[C@@](C)(c2ccc(C(F)(F)F)cc2)C1=O` [Compound 4, (R)-N-hydroxy-2-((S)-3-methyl-2-oxo-3-(4-(trifluoromethyl)phenyl)pyrrolidin-1-yl)propanamide], inhibition at MMP-1 was half-maximal at 0.18 ± 0.03 µM (IC50). Besides, the “fold higher MMP-1 inhibitory activity (fold lower IC50) of compound 4 relative to compound 3” value at MMP-1 (ratio of IC50 values, compound 3 vs compound 4) is listed as 60 fold.

For `C[C@H](C(=O)NO)N1CC[C@](C)(c2ccc(C(F)(F)F)cc2)C1=O` [4′, (R)-N-hydroxy-2-((R)-3-methyl-2-oxo-3-(4-(trifluoromethyl)phenyl)pyrrolidin-1-yl)propanamide], the melting point – broadly, the temperature, or range, at which the solid turns liquid – lay within 105 to 107 °C. Moreover, on MMP-1, the “inhibitory activity against MMP-1 in words” value was “did not display significant inhibitory activity” and the 50% inhibitory concentration (IC50) (in general, the concentration needed to halve the response being measured) was over 100 µM.

The molecule `C[C@H](C(=O)NO)N1CC[C@](C)(c2ccc(-c3ccccc3)cc2)C1=O` [3′, (R)-2-((R)-3-([1,1′-biphenyl]-4-yl)-3-methyl-2-oxopyrrolidin-1-yl)-N-hydroxypropanamide] had a melting point of 137 to 138 °C. Also, at MMP-1, the “inhibitory activity against MMP-1 in words” value is recorded as “did not display significant inhibitory activity” and the concentration for half-maximal inhibition (IC50) was over 100 µM.

For the molecule `C[C@H](C(=O)NO)N1CC[C@@](C)(c2cccc(C(F)(F)F)c2)C1=O` [Compound 6, (R)-N-hydroxy-2-((S)-3-methyl-2-oxo-3-(3-(trifluoromethyl)phenyl)pyrrolidin-1-yl)propanamide], on MMP-1, half-maximal inhibition (IC50) required 11.1 ± 0.5 µM.

With `C[C@H](C(=O)NO)N1CC[C@@](C)(c2ccc(-c3ccccc3)cc2)C1=O` [Compound 3, (R)-2-((S)-3-([1,1′-biphenyl]-4-yl)-3-methyl-2-oxopyrrolidin-1-yl)-N-hydroxypropanamide], the melting point lay in the range of 160 to 162 °C. The molecule also had a concentration for half-maximal inhibition (IC50) at MMP-1 of 11.5 ± 1.3 µM.

`C[C@H](C(=O)NO)N1CC[C@@](C)(c2ccccc2)C1=O` [Compound 5, (R)-N-hydroxy-2-((S)-3-methyl-2-oxo-3-phenylpyrrolidin-1-yl)propanamide] displayed an IC50 at MMP-1 of 1.54 ± 0.08 µM.
